Data taken from PMC9598561, “Antileishmanial Activity of 4,8-Dimethoxynaphthalenyl Chalcones on Leishmania amazonensis” (Antibiotics, 2022).

What was measured:
[1] = test system: L. amazonensis promastigotes; assay: Antipromastigote activity, MTT assay; type: cell-based, Leishmania amazonensis; settings: for SI = selectivity index (CC50/IC50): CC50 macrophages / IC50 promastigotes; for IC50: Leishmania amazonensis, L. amazonensis promastigotes, 24 h, MTT, IC50 ± SEM
Description: The promastigote forms of L. amazonensis (MHOM/BR/1989/166MJO) were maintained in culture medium 199 (GIBCO, Invitrogen, New York, NY, USA) pH 7.18–7.22 supplemented with 10% fetal bovine serum (FBS) (GIBCO, Invitrogen, New York, NY, USA), 1M HEPES buffer, 1% human urine, 1% L-glutamine, 10 µg/mL streptomycin and 10 U/mL penicillin (GIBCO, Invitrogen, NY, USA) and 10% sodium bicarbonate. The parasite culture was maintained in a B.O.D. incubator at 24 °C in 25 cm^2 culture flasks. In all experiments, promastigote forms in the stationary growth phase were used (5-day culture).
The activities were evaluated by the 3-(4,5-dimethylthiazol-2-yl)-2,5-diphenyltetrazolium bromide (MTT) assay. L. amazonensis promastigote forms (10^6 cells/mL) were placed in 96-well plates and treated with the chalcone derivatives (4a–i) at different concentrations (10, 25, 50, and 130 µM) and maintained in a B.O.D incubator for 24 h at 24 °C. A solution of MTT (10 μL of a 5 mg/mL stock) (Sigma-Aldrich, St. Louis, MO, USA) was added to each well, and after 4 h, the plates were evaluated at λ = 550 nm using a spectrophotometer (Thermo Fisher Scientific, Multiskan GO, Waltham, MA, USA). L. amazonensis promastigotes maintained in culture M199 medium without treatment or with 0.01% DMSO (Sigma-Aldrich, St. Louis, MO, USA) served as negative and vehicle controls. 1 μM amphotericin B (AmB) (Sigma-Aldrich, St. Louis, MO, USA) was used as a positive control. The results of antipromastigote activities were expressed as half-maximal inhibitory concentrations for 50% of parasites (IC50) in μM. The IC50 values were calculated as the average of three independent experiments performed in duplicates.
(§1) The half-maximal inhibitory concentration for 50% of parasites (IC50) was determined on L. amazonensis promastigotes treated with the nine compounds, and the cytotoxic concentration that causes the death of 50% of cells (CC50) on murine macrophages (J774A.1). IC50 and CC50 were calculated by nonlinear regression using GraphPad Prism statistical software (GraphPad Software, Inc., USA, 500.288). The tested compounds’ selectivity index was expressed as SI = CC50 on […] macrophages/IC50 on promastigotes forms.

[2] = Cytotoxicity on murine macrophages, MTT assay; type: cell-based; settings: mouse, J774A.1 macrophage cell line, J774A.1 macrophages, CC50 ± SEM
Description: The cytotoxic effect of compounds 4a–i on murine macrophage cell lines J774A.1 (TIB-67, ATCC, Manassas, VA, USA) was assessed using the MTT assay (3-(4,5-dimethylthiazol-2-yl)-2,5-diphenyltetrazolium bromide) (Sigma-Aldrich, St. Louis, MO, USA), [14]. Macrophages were seeded in 96-well plates at a density of 10^4 cells/well and were cultured with 4a–i at different concentrations (10, 25, 50, and 130 µM) for 24 h (37 °C, 5% CO2). The cells were washed, MTT (5 mg/mL) added, and the cells were incubated for 4 h. The MTT product was diluted with 100 μL of DMSO (Sigma-Aldrich, St. Louis, MO, USA) and analyzed at 550 nm in a spectrophotometer (Thermo Fisher Scientific, Multiskan GO, Waltham, MA, USA) at 550 nm. 0.5% H2O2 (Merck, Darmstadt, Germany) was used as a positive control. The results were expressed as the percentage of viable cells compared to the control group. The cytotoxic concentration for 50% of the cells (CC50) was calculated by nonlinear regression to the dose-response curve using GraphPad Prism statistical software (GraphPad Software, Inc., San Diego, CA, USA, 500.288).
as §1

[3] = test system: L. amazonensis intracellular amastigotes; assay: Antiamastigote assay in infected J774A.1 macrophages; type: cell-based, Leishmania amazonensis; settings: 24 h; for reduction of infected macrophages: mean ± SEM
Description: Murine macrophages J774A.1 (5 × 10^5 cell/mL) were cultivated in 24-well plates. After infection, the non-internalized promastigotes were removed by washing with PBS, and the adherent macrophages infected were treated with the most promising chalcone (4f) in non-cytotoxic concentrations (10, 25, 50, and 130 μM) for 24 h (37 °C, 5% CO2). RPMI 1640 medium, DMSO (0.01%), and AmB (1 μM) were used as a negative control, vehicle, and positive control, respectively. Then, cells were stained with Leishman (Laborclin, Pinhais, Brazil), and 20 fields were analyzed by increased immersion (1000× magnification) using an optical microscope (Olympus BX41, Olympus Optical Co., Ltd., Tokyo, Japan) to determine the % of infected macrophages and the number of amastigotes/cells.

[4] = test system: L. amazonensis promastigotes; assay: SEM and TEM morphological and ultrastructural analysis; type: cell-based, Leishmania amazonensis; settings: 3.3 μM and 6.6 μM, 24 h
Description: SEM was performed to analyze morphological changes in the cell surface topography. […] After the treatment, the parasites were fixed in 2.5% glutaraldehyde (Merck, Darmstadt, Germany) in 0.1 M sodium cacodylate buffer (Sigma-Aldrich, St. Louis, MO, USA) and adhered to coverslips covered with poly-L-lysine (Sigma-Aldrich, St. Louis, MO, USA) for 60 min. Parasites were dehydrated with increasing ethanol (Synth, Diadema, Brazil) concentrations (30–100%), submitted to critical point drying (Baltec SCD-030), metalized with gold, and visualized on a high-resolution double beam electron microscope FEI SCIOS.
To evaluate the ultrastructural changes by TEM, promastigotes were treated and fixed as described above. After the samples were post-fixed with 1% OsO4 (Sigma-Aldrich, St. Louis, MO, USA), 0.8% potassium ferrocyanide (Sigma-Aldrich, St. Louis, MO, USA), and 10.0 mM CaCl2 (Synth, Diadema, Brazil) in 0.1 M sodium cacodylate buffer for 1 h at room temperature and protected from light. Samples were washed in 0.1 M sodium cacodylate buffer, dehydrated in increased concentration of acetone (Synth, Diadema, Brazil) (50–100%), including in EPON resin, and polymerized at 60 °C for 72 h. […]

[5] = test system: L. amazonensis promastigotes; assay: Mitochondrial membrane potential (TMRE); type: cell-based, Leishmania amazonensis; settings: 3.3 μM and 6.6 μM, 24 h
Description: To evaluate if the most promising chalcone (4f) alters the mitochondrial membrane potential, we conducted an assay using a tetramethylrhodamine ethyl ester (TMRE) staining (Sigma-Aldrich, St. Louis, MO, USA). […] Carbonyl cyanide m-chlorophenylhydrazone (100 μM) (CCCP) (Sigma-Aldrich, St. Louis, MO, USA) was used as a positive control, and the vehicle (DMSO 0.01%) was used as a negative control.

[6] = test system: L. amazonensis promastigotes; assay: ROS generation in promastigotes (H2DCFDA probe); type: cell-based, Leishmania amazonensis; settings: 3.3 μM and 6.6 μM, 24 h
Description: As a positive control, hydrogen peroxide (0.4% H2O2) was used, and the vehicle (DMSO 0.01%) was used for a negative control. ROS was measured as an increase in fluorescence caused by converting the non-fluorescent dye to the fluorescent 2.7-dichlorofluorescein, with an excitation wavelength of 488 nm and emission of 530 nm in a fluorescence microplate reader (Victor X3, PerkinElmer, Turku, Finland).

Row | SMILES | SI = selectivity index (CC50/IC50) [1] | IC50 [1] [µM] | CC50 at 24 h [2] [µM] | further results
1 | C[C@@H]1[C@H](O)[C@@H](C)/C=C/C=C/C=C/C=C/C=C/C=C/C=C/[C@H](O[C@@H]2O[C@H](C)[C@@H](O)[C@H](N)[C@@H]2O)C[C@@H]2O[C@](O)(C[C@@H](O)C[C@@H](O)[C@H](O)CC[C@@H](O)C[C@@H](O)CC(=O)O[C@H]1C)C[C@H](O)[C@H]2C(=O)O [AmB, Amphotericin B, reference compound] | 73.17 | 0.68 ± 0.21 | 49.7 | reduction in the percentage of infected macrophages ([3]; 1 μM, positive control): 95.25 ± 0.65%; reduction of number of amastigotes per macrophage ([3]; 1 μM, positive control): 89.55 ± 0.05%
2 | COc1ccc(/C=C/C(=O)c2ccc(OC)c3cccc(OC)c23)cc1 [Compound 4a, (E)-1-(4,8-dimethoxynaphthalen-1-yl)-3-(4-methoxyphenyl)prop-2-en-1-one] | 1.7 | 264.1 ± 0.12 | 414.8 ± 0.04 | –
3 | COc1cccc(/C=C/C(=O)c2ccc(OC)c3cccc(OC)c23)c1 [Compound 4b, (E)-1-(4,8-dimethoxynaphthalen-1-yl)-3-(3-methoxyphenyl)prop-2-en-1-one] | 3.7 | 67.1 ± 0.16 | 246.7 ± 0.03 | –
4 | COc1ccc(C(=O)/C=C/c2ccc(Cl)c(Cl)c2)c2c(OC)cccc12 [Compound 4c, (E)-3-(3,4-dichlorophenyl)-1-(4,8-dimethoxynaphthalen-1-yl)prop-2-en-1-one] | 14.5 | 13.4 ± 0.08 | 194.3 ± 0.06 | –
5 | COc1ccc(C(=O)/C=C/c2c(Cl)cccc2Cl)c2c(OC)cccc12 [Compound 4d, (E)-3-(2,6-dichlorophenyl)-1-(4,8-dimethoxynaphthalen-1-yl)prop-2-en-1-one] | – | 94.1 ± 0.06 | 126.8 ± 0.09 | –
6 | COc1ccc(C(=O)/C=C/c2ccc(Cl)cc2Cl)c2c(OC)cccc12 [Compound 4e, (E)-3-(2,4-dichlorophenyl)-1-(4,8-dimethoxynaphthalen-1-yl)prop-2-en-1-one] | – | 37.7 ± 0.06 | 561.1 ± 0.03 | –
7 | COc1ccc(C(=O)/C=C/c2ccc([N+](=O)[O-])cc2)c2c(OC)cccc12 [Compound 4f, (E)-1-(4,8-dimethoxynaphthalen-1-yl)-3-(4-nitrophenyl)prop-2-en-1-one] | 112.6 | 3.3 ± 0.34 | 372.9 ± 0.04 | ultrastructural changes (TEM) [4]: an increase in autophagic vacuoles, lipid-storage bodies accumulation, mitochondrial swelling, and nuclear alterations; mitochondrial membrane potential (ΔΨm), TMRE [5]: reduces the potential of the mitochondrial membrane (ΔΨm); intracellular ROS levels (DCF fluorescence) [6]: substantial rise in the intracellular ROS levels; reduction of number of amastigotes per macrophage ([3]; 10 μM, compared to controls): 14.14 ± 0.04%; reduction of infected macrophages ([3]; 10 μM): 23.81 ± 1.07%; reduction of number of amastigotes per macrophage ([3]; 25 μM, compared to controls): 36.20 ± 0.02%; reduction of infected macrophages ([3]; 25 μM): 35.78 ± 1.59%; reduction of number of amastigotes per macrophage ([3]; 50 μM, compared to controls): 39.33 ± 0.03%; reduction of infected macrophages ([3]; 50 μM): 42.15 ± 0.49%; reduction of infected macrophages ([3]; 130 μM): 63.04 ± 0.35%; IC50 ([3]; Leishmania amazonensis, J774.A1, L. amazonensis-infected J774A.1 macrophages): 18.5 ± 1.19 µM
8 | COc1ccc(C(=O)/C=C/c2cccc([N+](=O)[O-])c2)c2c(OC)cccc12 [Compound 4g, (E)-1-(4,8-dimethoxynaphthalen-1-yl)-3-(3-nitrophenyl)prop-2-en-1-one] | 23.2 | 14.5 ± 0.09 | 366 ± 0.13 | –
9 | COc1ccc(C(=O)/C=C/c2ccccc2)c2c(OC)cccc12 [Compound 4h, (E)-1-(4,8-dimethoxynaphthalen-1-yl)-3-phenylprop-2-en-1-one] | 33.44 | 26.1 ± 0.09 | 872.3 ± 0.134 | –
10 | COc1ccc(C(=O)/C=C/c2ccc(Br)cc2)c2c(OC)cccc12 [Compound 4i, (E)-3-(4-bromophenyl)-1-(4,8-dimethoxynaphthalen-1-yl)prop-2-en-1-one] | 17.8 | 24.3 ± 0.05 | 434 ± 0.05 | –
